# Results taken from US20230111212A1, “MUSCLE TARGETING COMPLEXES AND USES THEREOF FOR TREATING DYSTROPHINOPATHIES” (Dyne Therapeutics, Inc., priority 2020, published 2023).
# Legend:
# [1] = test system: mdx mice (DMD mouse model); test: open field chamber experiment with hind limb fatigue challenge; format: in vivo; settings: single i.v. dose 30 mg/kg, two weeks after injection
# Description: (§1) Each experimental condition was replicated in five mdx mice. Five wild-type mice (healthy mice) were also dosed with vehicle control (saline).
# Two weeks after injection, the functional activity of all treated mice was determined using an open field chamber experiment. The experiment involved three consecutive stages: (1) a 10-minute period during which each mouse was placed into an open field chamber; (2) a 10-minute period during which each mouse was subjected to a hind limb fatigue challenge; and (3) a 10-minute period during which each mouse was placed into an open field chamber. The total horizontal distances traveled during stages (1) and (3) were collected. The percent change in the total distance traveled between the first and second tests.
# [2] = test system: mdx mice (DMD mouse model); test: cage running wheel test; format: in vivo; settings: single i.v. dose 30 mg/kg, four weeks after injection, 24-hour period
# Description: as §1
# Four weeks after injection, the activity of all treated mice was determined using a cage running wheel test. Each mouse was individually placed into cages with a running wheel for a 24-hour period. The 24-hour period involved five hours of light on followed by thirteen hours of darkness, and ending with six hours of light. The total distance traveled (in meters, m) by each mouse on the running wheel was continuously collected throughout the 24-hour period and subsequently binned into discrete one-hour increments.
# [3] = test system: creatine kinase; test: creatine kinase activity levels in mdx mice; format: in vivo, mouse; settings: single i.v. dose 30 mg/kg, two and four weeks after injection
# Description: as §1
# All mice in this Example were further tested for creatine kinase activity levels two weeks and four weeks after injection.
substance,measurement,setting,value
"MDX-ASO: naked exon 23 skipping PMO ASO; GGCCAAACCUCGGCUUACCUGAAAU (SEQ ID NO: 277) (PMO chemistry, chemistry not fully specified)",average decrease of total horizontal distance traveled during stage (3) relative to stage (1),[1],about 85%
same,functional performance in open field chamber experiment,[1],same compromised functional performance as those treated with vehicle
same,distance traveled on running wheel during the dark period,[2],considerably shorter distances
same,creatine kinase activity levels,[3],no significant benefit
